Laboratory results reported in patent publication US8686035B2, “Composition and method for promoting hair growth” (R-Tech Ueno, Ltd., priority 2003, dated 2014).
Several values for one entry are separate records, joined by “and”; a condition that tells them apart may be missing. Equal entries are not always repeated. Entries after “also recorded” stand apart in the source; their conditions may differ.

Columns and labels:
Format in all cases: in vivo
C3H/HeN mice [1] = test: Hair growth after topical application to clipped dorsal skin, macroscopic score (Example 1); design: key to Hair Growth Score: −: no hair growth observed; ±: hair growth≦10% of the clipped area; +: hair growth 10-40% of the clipped area; ++: hair growth 40-80% of the clipped area; +++: hair growth ≧80% of the clipped area; settings: for Hair Growth Score / animals on which hair growth was observed: topical once daily; for Hair Growth Score: individual animals; for animals on which hair growth was observed: 0.1%, 30 days treatment period, 3 animals per group
Experimental: (§1) Eight-weeks-old male C3H/HeN mice were used. The hair on the back was clipped by electric clipper so that the hair in the clipped area was removed as much as possible. Three days after the clipping, mice without visible scratches were selected and used in this study. Each group consisted of 3 animals. After group assignment, the groups were housed separately in aluminum cages (3 animals/cage, 180 mm W×300 mm D×130 mm H; Nippon Cage, Ltd., Japan).
Each test compound was dissolved in 70% (w/w) aqueous ethanol. Each dose formulation of test compound was evenly applied topically once daily (100 μL per mouse) to the clipped dorsal skin area (approximately 2×4 cm), except for Saturday and Sunday, for 30 days. The control group received an equal amount of the vehicle in the same manner.
Macroscopic observations of the hair growth were performed 14, 16, 18, 21, 23, 25, 28 and 30 days after the start of the treatment. Hair growth was scored according to the scale below:
− no hair growth observed
± hair growth≦10% of the clipped area
+ hair growth 10-40% of the clipped area
++ hair growth 40-80% of the clipped area
+++ hair growth ≧80% of the clipped area

C3H/HeN mice [2] = test: Thickness of grown-up hair (Example 3); settings: 0.1% treated area, hairs collected 31 days after start of treatment of Example 1, n=3
Experimental: 31 days after the start of the treatment conducted in Example 1, grown-up hairs in the treated area and hairs in the untreated area (i.e. non clipped area) were collected, respectively. Enlarged photomicrographs of the collected hairs were taken. Thickness of the randomly selected each ten hairs were measured and calculated the average.

C3H/HeN mice [3] = test: Hair growth after topical application to clipped dorsal skin, macroscopic score (Example 2); design: key to Hair Growth Score: −: no hair growth observed; ±: hair growth≦10% of the clipped area; +: hair growth 10-40% of the clipped area; ++: hair growth 40-80% of the clipped area; +++: hair growth ≧80% of the clipped area; settings: topical once daily; for Hair Growth Score: 0.1% in 75% aqueous ethanol, individual animals
Experimental: as §1
Test compound was dissolved in 75% aqueous ethanol. The formulation of test compound (compound E) was evenly applied topically once daily (100 μL per mouse) to the clipped dorsal skin area (approximately 2×4 cm), except for Saturday and Sunday, for 23 days. The control group received an equal amount of the vehicle in the same manner.
Macroscopic observations of the hair growth were performed 14, 16, 18, 21 and 23 days after the start of the treatment. Hair growth was scored according to the scale shown as above. In the 0.1% compound E-treated group, hair growth was observed on 3 out of 3 animals.

[4] = 0.1% in 70% (w/w) aqueous ethanol, day 14 of treatment
[5] = 0.1% in 70% (w/w) aqueous ethanol, day 16 of treatment
[6] = 0.1% in 70% (w/w) aqueous ethanol, day 18 of treatment
[7] = 0.1% in 70% (w/w) aqueous ethanol, day 21 of treatment
[8] = 0.1% in 70% (w/w) aqueous ethanol, day 23 of treatment
[9] = 0.1% in 70% (w/w) aqueous ethanol, day 25 of treatment
[10] = 0.1% in 70% (w/w) aqueous ethanol, day 28 of treatment
[11] = 0.1% in 70% (w/w) aqueous ethanol, day 30 of treatment

| SMILES | Hair Growth Score (C3H/HeN mice [1]; [4]) | Hair Growth Score (C3H/HeN mice [1]; [5]) | Hair Growth Score (C3H/HeN mice [1]; [6]) | Hair Growth Score (C3H/HeN mice [1]; [7]) | Hair Growth Score (C3H/HeN mice [1]; [8]) | Hair Growth Score (C3H/HeN mice [1]; [9]) | Hair Growth Score (C3H/HeN mice [1]; [10]) | Hair Growth Score (C3H/HeN mice [1]; [11]) | Hair thickness, μm mean ± SE (C3H/HeN mice [2]) [μm] | animals on which hair growth was observed (C3H/HeN mice [1]) | also measured |
| --- | --- | --- | --- | --- | --- | --- | --- | --- | --- | --- | --- |
| CCCCCCCC1(CCC2C(O)CC(O)C2C/C=C\CCCC(=O)OC(C)C)OCCO1 (stereo not drawn) [Compound A, 13,14-dihydro-15,15-ethylenedioxy-20-ethyl-PGF2α isopropyl ester] | − | ± (hair growth≦10% of the clipped area) (2×) and − | ± (hair growth≦10% of the clipped area) | + (hair growth 10-40% of the clipped area) | ++ (hair growth 40-80% of the clipped area) | ++ (hair growth 40-80% of the clipped area) | +++ (hair growth ≧80% of the clipped area) | +++ (hair growth ≧80% of the clipped area) | 34.1 ± 1.6 |  | hair growth, dose dependence (C3H/HeN mice [1]; 0.01% and 0.1% treated groups): dose-dependent hair growth; Hair Growth Score (C3H/HeN mice [1]; 0.01% in 70% (w/w) aqueous ethanol, day 14 of treatment): −; Hair Growth Score (C3H/HeN mice [1]; 0.01% in 70% (w/w) aqueous ethanol, day 16 of treatment): −; Hair Growth Score (C3H/HeN mice [1]; 0.01% in 70% (w/w) aqueous ethanol, day 18 of treatment): − (2×) and ± (hair growth≦10% of the clipped area); Hair Growth Score (C3H/HeN mice [1]; 0.01% in 70% (w/w) aqueous ethanol, day 21 of treatment): − (2×) and ± (hair growth≦10% of the clipped area); Hair Growth Score (C3H/HeN mice [1]; 0.01% in 70% (w/w) aqueous ethanol, day 23 of treatment): − (2×) and ± (hair growth≦10% of the clipped area); Hair Growth Score (C3H/HeN mice [1]; 0.01% in 70% (w/w) aqueous ethanol, day 25 of treatment): − and + (hair growth 10-40% of the clipped area) (2×); Hair Growth Score (C3H/HeN mice [1]; 0.01% in 70% (w/w) aqueous ethanol, day 28 of treatment): + (hair growth 10-40% of the clipped area); also recorded: ++ (hair growth 40-80% of the clipped area); Hair Growth Score (C3H/HeN mice [1]; 0.01% in 70% (w/w) aqueous ethanol, day 30 of treatment): + (hair growth 10-40% of the clipped area); also recorded: ++ (hair growth 40-80% of the clipped area) |
| CC(C)OC(=O)CCC/C=C\CC1C(O)CC(O)C1CCC1(CCc2ccccc2)OCCO1 (stereo not drawn) [Compound B, 13,14-dihydro-15,15-ethylenedioxy-17-phenyl-18,19,20-trinor-PGF2α isopropyl ester] | − | − | ± (hair growth≦10% of the clipped area) and − (2×) | ± (hair growth≦10% of the clipped area) | + (hair growth 10-40% of the clipped area) | ++ (hair growth 40-80% of the clipped area); also recorded: + (hair growth 10-40% of the clipped area) | ++ (hair growth 40-80% of the clipped area) | ++ (hair growth 40-80% of the clipped area) | 33.3 ± 0.7 |  | Hair Growth Score (C3H/HeN mice [1]; 0.1% in 70% (w/w) aqueous ethanol, day 30 of treatment, listed as compound B): ++ (hair growth 40-80% of the clipped area) |
| CCCCCCCC1(CCC2C(O)CC(O)C2C/C=C\CCCC(=O)OC(C)C)OCCCO1 (stereo not drawn) [Compound C, 13,14-dihydro-15,15-trimethylenedioxy-20-ethyl-PGF2α isopropyl ester] | − | − | − (2×) and ± (hair growth≦10% of the clipped area) | − (2×) and ± (hair growth≦10% of the clipped area) | − (2×) and ± (hair growth≦10% of the clipped area) | − (2×) and + (hair growth 10-40% of the clipped area) | − (2×) and + (hair growth 10-40% of the clipped area) | − (2×) and + (hair growth 10-40% of the clipped area) |  | 1 out of 3 |  |
| CCCCCCCC(CCC1C(O)CC(O)C1C/C=C\CCCC(=O)OC(C)C)(OC)OC (stereo not drawn) [Compound D, 13,14-dihydro-15,15-dimethoxy-20-ethyl-PGF2α isopropyl ester] | − | − (2×) and ± (hair growth≦10% of the clipped area) | − (2×) and ± (hair growth≦10% of the clipped area) | − (2×) and + (hair growth 10-40% of the clipped area) | − (2×) and + (hair growth 10-40% of the clipped area) | − (2×) and + (hair growth 10-40% of the clipped area) | − and ++ (hair growth 40-80% of the clipped area) and ± (hair growth≦10% of the clipped area) | − and ++ (hair growth 40-80% of the clipped area) and ± (hair growth≦10% of the clipped area) |  | 2 out of 3 |  |
| CCCCCCCC1(CCC2C(O)CC(O)C2C/C=C\CCCC(=O)OCC)OCCO1 (stereo not drawn) [Compound E, 13,14-dihydro-15,15-ethylenedioxy-20-ethyl-PGF2α ethyl ester] |  |  |  |  |  |  |  |  |  |  | Hair Growth Score (C3H/HeN mice [3]; day 14 of treatment): −; Hair Growth Score (C3H/HeN mice [3]; day 16 of treatment): −; Hair Growth Score (C3H/HeN mice [3]; day 18 of treatment): ± (hair growth≦10% of the clipped area) (2×) and −; Hair Growth Score (C3H/HeN mice [3]; day 21 of treatment): ++ (hair growth 40-80% of the clipped area); also recorded: + (hair growth 10-40% of the clipped area); Hair Growth Score (C3H/HeN mice [3]; day 23 of treatment): + (hair growth 10-40% of the clipped area); also recorded: ++ (hair growth 40-80% of the clipped area); animals on which hair growth was observed (C3H/HeN mice [3]; 0.1%, 23 days treatment period, 3 animals per group): 3 out of 3 |
